# Assay results as given in patent US12649980B2, “Three-dimensional surface for protein and small molecule microarrays” (The Johns Hopkins University, priority 2019, dated 2026).
# What was measured:
# PANC10.05 = experiment: Alamar blue cell proliferation assay, PANC10.05; assay type: cell-based, human; conditions: PANC 10.05, 72 h; read-out: IC50 Assay B (Alamar blue cell proliferation)
# Method: (§1) The effects of RgA on cell growth, survival, and cell death was then determined. […] Treatment with 5 μM of RgA caused an increase in G1 phase by approximately 23% in comparison to control and approximately 7% and 17% decreases in cells in S and G2/M phases, respectively. The induction in G1 phase cell cycle arrest by RgA is dose-dependent (FIG. 5A, FIG. 16). […] Jones and Thompson, Genes Dev. 2009, 23, 537-548. […] The IC50 values of RgA against several human cancer cell lines also was determined using the alamar blue cell proliferation assay.
# (§2) Cells were seeded into a 96-well plate (Costar) in 180 μL culture media. After an overnight recovery, drugs were added and incubated for 72 h. After drug incubation, cells were added with 20 μL of alamar blue reagent and the plates were incubated at 37° C. for 6 h before reading the fluorescence (544 nm Ex/590 nm Em) with a plate reader. GraphPad Prism (v4.03) software was used to determine IC50 values using a four parameter logistic regression.
# HeLa = experiment: Alamar blue cell proliferation assay, HeLa; assay type: cell-based, human; conditions: 72 h, read-out: IC50 Assay B (Alamar blue cell proliferation)
# Method: as §1, §2
structure (smiles),measurement,setting,value
"CCC(C)C1C(=O)NCC(=O)N(C)CCC=CC(=O)OCC(C)(C)C(=O)C(=O)N2CCCCC2C(=O)OC(CCc2ccc(OC)c(OC)c2)c2cccc(c2)NC(=O)CCC(=O)N(C)C(CC(C)C)C(=O)NC(Cc2ccccc2)C(=O)N1C (centres unmarked) [JW11-D2, Rapaglutin A]",IC50,PANC10.05,119 nM
same,IC50,HeLa,281 nM
